The text below walks through data of patent US20110160054A1, “Pesticidal Mixtures Comprising Cyanosulfoximine Compounds and Spinetoram” (BASF SE, priority 2008, published 2011).

Like-named read-outs stand apart in the source and are kept apart here.

What all share (format): cell-based
What all share (conditions): single compound, 7 days after inoculation

For one assay, the system named is Botrytis cinerea. In words: Activity against the grey mold Botrytis cinerea in the microtiterplate test (Botrci).
A further assay relates to Septoria tritici. Nature of the assay: Activity against leaf blotch on wheat caused by Septoria tritici, microtiter test (Septtr).
For another assay, the system named is Pyricularia oryzae.
Another assay has as its system Phytophthora infestans.

Regarding `Fc1ccc([C@]2(Cn3cncn3)O[C@H]2c2ccccc2Cl)cc1` (racemic) [Epoxiconazol, epoxiconazole], the Observed efficacy in the assay on Botrytis cinerea (0.25 ppm) was 25%.

`CO/C=C(/C(=O)OC)c1ccccc1Oc1cc(Oc2ccccc2C#N)ncn1` [Azoxystrobin, azoxystrobin]: the Observed efficacy in the assay on Septoria tritici (0.063 ppm) was 56%.

The molecule `COC(=O)Nc1nc2ccccc2[nH]1` [Carbendazim, carbendazim] had an Observed efficacy in the assay on Pyricularia oryzae (0.25 ppm) of 15%.

In the assay on Phytophthora infestans (0.063 ppm), `Cc1ccc(-c2c(Cl)nc(C#N)n2S(=O)(=O)N(C)C)cc1` [Cyazofamid, cyazofamid] displayed an Observed efficacy of 67%.

`CC1(C(=O)Nc2ccc(O)c(Cl)c2Cl)CCCCC1` [Fenhexamid, fenhexamid]: the Observed efficacy in the assay with Septoria tritici (16 ppm) is recorded as 33%.

Molecule `OC(Cc1ccccc1Cl)(Cn1nc[nH]c1=S)C1(Cl)CC1` (centres unmarked) [Prothioconazol, prothioconazole] displayed an Observed efficacy in the assay on Botrytis cinerea (0.063 ppm) of 19%.

As to `COC(=O)N(OC)c1ccccc1COc1ccn(-c2ccc(Cl)cc2)n1` [Pyraclostrobin, pyraclostrobin], the Observed efficacy with Botrytis cinerea (0.25 ppm) stood at 4%.

As for `CC(C)CC(C)c1sccc1NC(=O)c1cn(C)nc1C(F)(F)F` (centres unmarked) [penthiopyrad], the Observed efficacy with Botrytis cinerea (0.063 ppm) is reported as 32%; in the assay on Botrytis cinerea (0.25 ppm), 45%; in the assay with Pyricularia oryzae (0.25 ppm), 6%; in the assay on Pyricularia oryzae (1 ppm) it was 55%.

As to `Cn1cc(C(=O)Nc2ccccc2C2CC2C2CC2)c(C(F)F)n1` (centres unmarked) [sedaxane], the Observed efficacy in the assay with Botrytis cinerea (0.25 ppm) was 41%.

With Spinetoram, the Observed efficacy in the assay on Botrytis cinerea (0.25 ppm) is given as 1%; in the assay on Botrytis cinerea (4 ppm), 1%; with Botrytis cinerea (16 ppm), 0%; in the assay on Botrytis cinerea (63 ppm) it was 21%; with Phytophthora infestans (4 ppm) it was 2%; in the assay with Phytophthora infestans (16 ppm), 24%. Further, the Observed efficacy in the assay on Pyricularia oryzae (4 ppm) was determined as 2%; in the assay with Pyricularia oryzae (16 ppm) it was 2%; in the assay with Pyricularia oryzae (63 ppm), 34%; in the assay with Septoria tritici (16 ppm), 0%; in the assay on Septoria tritici (63 ppm), 4%.

As for mancozeb, the Observed efficacy with Botrytis cinerea (16 ppm) was found to be 46%.

For propineb, the Observed efficacy with Phytophthora infestans (1 ppm) was determined as 23%; in the assay with Septoria tritici (1 ppm), 25%.
